Assay results: ChEMBL document CHEMBL2311532, “Identification of benzofuran central cores for the inhibition of leukotriene A(4) hydrolase” (Bioorg Med Chem Lett, 2013)

How the values were obtained:
[1] = target: T1, Leukotriene A-4 hydrolase (Homo sapiens, UniProt P09960); assay: Inhibition of recombinant human LTA4H expressed in Sf9 cells using LTA4 as substrate incubated for 10 mins prior to substrate addition measured after 10 to 30 mins by enzyme immunoassay
T1 sequence (P09960 whole entry): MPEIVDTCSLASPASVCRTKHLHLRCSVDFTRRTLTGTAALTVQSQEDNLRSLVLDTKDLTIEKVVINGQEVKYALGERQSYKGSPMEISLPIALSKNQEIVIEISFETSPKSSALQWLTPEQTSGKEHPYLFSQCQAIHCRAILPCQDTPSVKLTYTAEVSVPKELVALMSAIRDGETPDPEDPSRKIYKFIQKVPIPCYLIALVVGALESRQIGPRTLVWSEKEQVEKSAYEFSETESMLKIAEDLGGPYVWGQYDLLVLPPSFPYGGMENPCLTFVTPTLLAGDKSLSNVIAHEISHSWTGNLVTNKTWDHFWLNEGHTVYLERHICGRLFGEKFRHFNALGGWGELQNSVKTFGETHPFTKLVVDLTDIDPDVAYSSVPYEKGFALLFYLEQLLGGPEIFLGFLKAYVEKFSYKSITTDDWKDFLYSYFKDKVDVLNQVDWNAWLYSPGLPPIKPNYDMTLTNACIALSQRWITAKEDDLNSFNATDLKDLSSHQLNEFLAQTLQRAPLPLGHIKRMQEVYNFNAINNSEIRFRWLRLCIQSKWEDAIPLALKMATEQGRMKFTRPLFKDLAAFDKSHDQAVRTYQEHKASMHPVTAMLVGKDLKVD

[2] = target: T2, Leukotriene A-4 hydrolase (Mus musculus, UniProt P24527); assay: Inhibition of LTA4H in CD1 mouse whole blood assessed as decrease in calcium ionophore-stimulated LTB4 production incubated for 15 mins prior to calcium ionophore challenge measured after 10 to 30 mins by enzyme immunoassay
T2 sequence (P24527 whole entry): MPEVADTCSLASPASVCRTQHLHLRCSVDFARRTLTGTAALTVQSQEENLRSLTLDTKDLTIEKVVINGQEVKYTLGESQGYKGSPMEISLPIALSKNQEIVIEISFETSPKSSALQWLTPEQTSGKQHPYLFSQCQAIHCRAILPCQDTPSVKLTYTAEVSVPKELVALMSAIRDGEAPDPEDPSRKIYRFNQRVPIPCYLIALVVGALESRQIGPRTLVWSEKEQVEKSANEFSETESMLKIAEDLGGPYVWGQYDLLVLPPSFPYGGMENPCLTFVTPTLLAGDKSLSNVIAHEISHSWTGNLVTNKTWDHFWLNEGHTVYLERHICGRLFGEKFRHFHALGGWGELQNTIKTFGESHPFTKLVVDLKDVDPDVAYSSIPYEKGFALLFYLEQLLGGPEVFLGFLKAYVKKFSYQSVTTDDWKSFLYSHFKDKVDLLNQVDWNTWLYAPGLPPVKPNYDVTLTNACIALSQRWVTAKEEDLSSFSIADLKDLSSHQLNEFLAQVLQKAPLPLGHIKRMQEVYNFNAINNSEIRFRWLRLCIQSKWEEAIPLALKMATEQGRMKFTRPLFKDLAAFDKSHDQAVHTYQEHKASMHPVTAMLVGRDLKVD

Mus musculus [3] = assay: Inhibition of LTA4H in po dosed Balb/c mouse assessed as decrease in calcium ionophore-stimulated LTB4 production in blood administered for 4 hrs prior to calcium ionophore challenge measured after 10 to 30 mins by enzyme immunoassay; format: functional
[4] = Clearance in Sprague-Dawley rat at 3 mg/kg, iv and 10 mg/kg, po; format: ADME, organism-based; details: in vivo
[5] = Half life in Sprague-Dawley rat at 3 mg/kg, iv and 10 mg/kg, po; format: ADME, organism-based; details: in vivo
[6] = Oral bioavailability in Sprague-Dawley rat at 10 mg/kg; format: ADME, organism-based; details: in vivo
[7] = Volume of distribution at steady state in Sprague-Dawley rat at 3 mg/kg, iv and 10 mg/kg, po; format: ADME, organism-based; details: in vivo, read-out: Vdss
Mus musculus [8] = assay: Inhibition of LTA4H in po dosed Balb/c mouse assessed as concentration required to decrease calcium ionophore-stimulated LTB4 production in blood administered for 4 hrs prior to calcium ionophore challenge measured after 10 to 30 mins by enzyme immunoassay; format: functional, organism-based
[9] = target: T1, Leukotriene A-4 hydrolase; assay: Inhibition of LTA4H in human whole blood assessed as decrease in LTB4 production

Row | Compound | IC50 [1] | IC50 [2] | further results
1 | CC(=O)N1CC2CC1CN2Cc1cc2ccc(Oc3nc4cccnc4s3)cc2o1 (centres undefined) | 2130 nM |  | 
2 | c1ccc2sc(Oc3ccc4c(CN5CCCCC5)coc4c3)nc2c1 | 67 nM | 420 nM | 
3 | O=C1CCCN1C1CCN(CCOc2ccc(Oc3nc4ccccc4s3)cc2)CC1 |  |  | ED50 (Mus musculus [3]): 10 mg/kg; clearance [4]: 8.33 mL/min/kg; half-life [5]: 54 min; bioavailability [6]: 29%; Vd [7]: 1.1 L/kg; EC50 (Mus musculus [8]): 72 nM
4 | CC(=O)N[C@H]1C[C@H]2CC[C@@H](C1)N2Cc1coc2cc(Oc3nc4ccccc4s3)ccc12 | 7.3 nM | 69 nM | 
5 | CC(=O)N1CC2CC1CN2Cc1cc2cc(Oc3nc4cccnc4s3)ccc2o1 (centres undefined) | 340 nM |  | 
6 | c1ccc2sc(Oc3ccc4cc(CN5CCCCC5)oc4c3)nc2c1 | 430 nM |  | 
7 | O=C1CCCN1C1CCN(Cc2coc3cc(Oc4nc5ncccc5s4)ccc23)CC1 |  | 21 nM | ED50 (Mus musculus [3]): 0.3 mg/kg; inhibition (Mus musculus [3]): Dose-dependent effect; clearance [4]: 11.7 mL/min/kg; IC50 [9]: 61 nM; half-life [5]: 150 min; bioavailability [6]: 61%; Vd [7]: 1.6 L/kg; EC50 (Mus musculus [8]): 3 nM
8 | c1ccc2sc(Oc3ccc4c(CN5CCOCC5)coc4c3)nc2c1 | 140 nM | 1120 nM | 
9 | CC(=O)N[C@H]1C[C@H]2CC[C@@H](C1)N2Cc1coc2cc(Oc3nc4ncccc4s3)ccc12 | 1.6 nM | 9.8 nM | 
10 | CC(=O)N1CC2CC1CN2Cc1coc2cc(Oc3nc4cccnc4s3)ccc12 (centres undefined) | 300 nM |  | 
11 | c1ccc2sc(Oc3ccc4oc(CN5CCCCC5)cc4c3)nc2c1 | 330 nM |  | 
12 | CC(=O)N1CC2CC1CN2Cc1cc2cc(Oc3nc4cnccc4s3)ccc2o1 (centres undefined) | 340 nM |  | 
13 | CC(=O)N1CC2CC1CN2Cc1cc2ccc(Oc3nc4cnccc4s3)cc2o1 (centres undefined) | 2370 nM |  | 
14 | CC(=O)N1CC2CC1CN2Cc1coc2cc(Oc3nc4cnccc4s3)ccc12 (centres undefined) | 340 nM |  | 

Second part, led by results:

Row | IC50 [1] | IC50 [2] | Compound | further results
15 | 26 nM | 100 nM | CC(=O)NC1CCN(Cc2coc3cc(Oc4nc5ccccc5s4)ccc23)CC1 | 
16 | 34 nM | 250 nM | CC(=O)N1C[C@@H]2C[C@H]1CN2Cc1coc2cc(Oc3nc4ccccc4s3)ccc12 | 
17 | 58 nM | 230 nM | O=C1CCCN1C1CCN(Cc2coc3cc(Oc4nc5ccccc5s4)ccc23)CC1 | 
18 | 8.3 nM | 280 nM | O=C(O)C1CCN(Cc2coc3cc(Oc4nc5ncccc5s4)ccc23)CC1 | 
19 | 7.3 nM | 21 nM | CC(=O)N1C[C@@H]2C[C@H]1CN2Cc1coc2cc(Oc3nc4ncccc4s3)ccc12 | 
20 | 14 nM | 19 nM | O=C(O)C1CCN(Cc2coc3cc(Oc4nc5ccccc5s4)ccc23)CC1 | 
21 | 7.3 nM | 21 nM | CC(=O)N1CC2CC1CN2Cc1coc2cc(Oc3nc4ncccc4s3)ccc12 (centres undefined) | 
22 | 66 nM | 91 nM | c1cnc2nc(Oc3ccc4oc(CN5CCCCC5)cc4c3)sc2c1 | 
23 | 51 nM | 140 nM | c1cnc2nc(Oc3ccc4cc(CN5CCCCC5)oc4c3)sc2c1 | 
24 | 3.7 nM | 17 nM | CC(=O)NC1CCN(Cc2coc3cc(Oc4nc5ncccc5s4)ccc23)CC1 | 
25 | 4.6 nM | 21 nM | c1cnc2nc(Oc3ccc4c(CN5CCCCC5)coc4c3)sc2c1 | 
26 | 25 nM | 49 nM | c1cnc2nc(Oc3ccc4c(CN5CCOCC5)coc4c3)sc2c1 | 
27 | 62 nM | 210 nM | CC(=O)N1CC2CC1CN2Cc1cc2ccc(Oc3nc4ncccc4s3)cc2o1 (centres undefined) | 
28 | 7 nM | 27 nM | CC(=O)N1CC2CC1CN2Cc1cc2cc(Oc3nc4ncccc4s3)ccc2o1 (centres undefined) | 
